This passage reports IC50 results from ChEMBL document CHEMBL4811283, “New camptothecin derivatives for generalized oncological chemotherapy: Synthesis, stereochemistry and biology” (Bioorg Med Chem Lett, 2021).

For orientation: IC50 means the concentration that inhibits the measured activity by half.

One assay has as its system MCF7. Nature of the assay: Cytotoxicity against human MCF7 cells assessed as inhibition of cell growth measured after 72 hrs. Conditions: MCF7, 72 h. Type of assay: functional, cell-based.
For the next assay, the system named is HT-29. The assay can be described thus: Cytotoxicity against human HT-29 cells assessed as inhibition of cell growth measured after 72 hrs. Type of assay: functional, cell-based. Particulars: HT-29, 72 h.
The subject of another assay is HL-60. The assay can be described thus: Cytotoxicity against human HL-60 cells assessed as inhibition of cell growth measured after 72 hrs. Type of assay: functional, cell-based. Conditions: HL-60, 72 h.
The test system of a further assay is A549. Nature of the assay: Cytotoxicity against human A549 cells assessed as inhibition of cell growth measured after 72 hrs. Conditions: A549, 72 h. Format: functional, cell-based.
A further assay deals with CCD-841CoN. The assay can be described thus: Cytotoxicity against human CCD-841CoN cells assessed as inhibition of cell growth measured after 72 hrs. Format: cell-based.

A value given as a limit tells only on which side of the number the result lay.

Turning to `CCc1c2c(nc3ccc(O)c(N(C)CCO)c13)-c1cc3c(c(=O)n1C2)COC(=O)[C@]3(O)CC`, the IC50 in the assay with MCF7 is 1.21 µM; with HT-29, 0.15 µM; in the assay with HL-60, 0.009 µM; in the assay with A549, 0.403 µM; in the assay on CCD-841CoN, 36.1 µM.
`CCc1c2c(nc3ccc(O)cc13)-c1cc3c(c(=O)n1[C@@H]2CO)COC(=O)[C@]3(O)CC`: the IC50 in the assay on MCF7 stood at 14.9 µM; in the assay on HT-29 it was 14.8 µM; with HL-60, 1.89 µM; in the assay with A549, 6.54 µM; in the assay with CCD-841CoN, 62 µM.
Taken in the same sequence, the figures for `CCc1c2c(nc3ccc(O)cc13)-c1cc3c(c(=O)n1C2)COC(=O)[C@]3(O)CC` [7-ETHYL-10-HYDROXYCAMPTOTHECIN] were 0.66 µM, 0.02 µM, 0.002 µM, 0.028 µM and 4.98 µM.
Turning to `CCc1c2c(nc3ccc(O)cc13)-c1cc3c(c(=O)n1[C@H]2CN1CCCC1)COC(=O)[C@]3(O)CC`, the IC50 in the assay with MCF7 was 0.81 µM; in the assay on HT-29 it was 0.598 µM; in the assay with HL-60, 0.011 µM; in the assay on A549, 0.204 µM; in the assay on CCD-841CoN, 24.4 µM.
Turning to `CCc1c2c(nc3ccc(O)c(CN4CCC4)c13)-c1cc3c(c(=O)n1[C@@H]2CO)COC(=O)[C@]3(O)CC`, the 50% inhibitory concentration (IC50) in the assay with MCF7 is 6.7 µM; in the assay on HT-29, 2.5 µM; in the assay on HL-60 it was 0.113 µM; in the assay on A549, 1.17 µM; in the assay with CCD-841CoN, above 1000 µM.
In the same order, the values of `CCc1c2c(nc3ccc(O)c(CN4CCC4)c13)-c1cc3c(c(=O)n1[C@H]2CO)COC(=O)[C@]3(O)CC` are 11.1 µM, 6.98 µM, 0.334 µM, 5.22 µM and above 1000 µM.
As to `C=c1c2c(CC)c3cc(O)ccc3nc2c2cc3c(c(=O)n12)COC(=O)[C@]3(O)CC`, the results for the IC50 in the assay on HT-29, in the assay with A549 and in the assay on CCD-841CoN were 0.15 µM, 1.94 µM and 92.2 µM, respectively.
As to `CCc1c2c(nc3ccc(O)cc13)-c1cc3c(c(=O)n1[C@H]2CO)COC(=O)[C@]3(O)CC`, the half-inhibitory concentration (IC50) in the assay with MCF7 is 15.9 µM; with HT-29, 9.48 µM; in the assay with HL-60, 0.722 µM; in the assay on A549, 4.27 µM; in the assay with CCD-841CoN it was 382 µM.
Take `CCc1c2c(nc3ccc(O)c(CO)c13)-c1cc3c(c(=O)n1C2)COC(=O)[C@]3(O)CC`: the values for the IC50 in the assay on HT-29, with A549 and in the assay on CCD-841CoN were 0.68 µM, 11 µM and above 1000 µM, respectively.
With `CCc1c2c(nc3ccc(OC(=O)N4CCC(N5CCCCC5)CC4)cc13)-c1cc3c(c(=O)n1C2)COC(=O)[C@]3(O)CC` [IRINOTECAN], the IC50 amounted to 14.1 µM in the assay on MCF7; 6.85 µM in the assay on HT-29; 4.24 µM in the assay on HL-60; 26.7 µM in the assay on A549; 90.2 µM in the assay with CCD-841CoN.
In the same order, the values of `CCc1c2c(nc3ccc(O)cc13)-c1cc3c(c(=O)n1[C@@H]2CN1CCCC1)COC(=O)[C@]3(O)CC` are 0.906 µM, 0.493 µM, 0.007 µM, 0.272 µM and 21.8 µM.
